According to patent US12404283B2, “c-MYC mRNA translation modulators and uses thereof in the treatment of cancer” (Anima Biotech Inc., priority 2022, dated 2025):
Where a name gives a salt, the structure may show the parent alone.

Test system: c-Myc
Assay: c-Myc immunofluorescence assay
Assay type: cell-based, human
Settings: A549 cells, 24 hours treatment, anti-c-Myc immunofluorescence
Method: A549 human non-small cell lung carcinoma cells were treated for 24 hours with increasing compound concentration, cells were fixed and stained with a nuclei stain (DAPI) and anti-c-Myc fluorescent antibody. The c-Myc signal was quantified by image analysis, and data was exported and analyzed using TIBCO Spotfire® (TIBCO Corporation). Dose response curves were generated and fitted with logaristic regression to calculate potency (EC50 values). Potency values are presented in Table 2 for all compounds and are shown for selected compounds (FIG. 4).
A549 cells were grown in 384-wells plates (Perkin Elmer, Cat. 6057300) for 48 hours, treated with compounds and then fixed for 20 min in 4% paraformaldehyde. After that permeabilization was done using 0.1% Triton X-100 in PBS for 20 min. Primary anti-c-Myc antibody (Abcam, ab32072) staining was performed for 90 min at room temperature. Cells then were washed twice with PBS and incubated with secondary antibody (Abcam, ab150075) for 90 min at room temperature. Nuclei were stained with DAPI for 10 min and washed twice with PBS.
Cell images were taken with Operetta (Perkin Elmer, USA), a wide-field fluorescence microscope at 20× magnification. After acquisition, the images were transferred to Columbus software (Perkin-Elmer) for image analysis. In Columbus, cells were identified by their nucleus, using the “Find Nuceli” module and cytoplasm was detected based on the secondary antibody channel. Subsequently, the fluorescent signal was enumerated in the identified cell region. Then data was exported to a data analysis and visualization software, Tibco Spotfire, USA.

Compound | Myc Efficacy (−LogEC50)
CO[C@H]1CN[C@@H](c2ccc(-c3cn4c(n3)sc3cc(C(=O)NCCCN5CCC(F)CC5)ccc34)c(F)c2)C1 (relative stereo) [Compound 523, 2-(2-fluoro-4-((cis)-4-methoxypyrrolidin-2-yl)phenyl)-N-(3-(4-fluoropiperidin-1-yl)propyl)benzo[d]imidazo[2,1-b]thiazole-7-carboxamide] | +++ (+++ ≥6)
CO[C@H]1CN[C@@H](c2ccc(-c3cn4c(n3)sc3cc(C(=O)NC5CCN(C)CC5)ccc34)c(F)c2)C1 (relative stereo) [Compound 532, 2-(2-fluoro-4-((cis)-4-methoxypyrrolidin-2-yl)phenyl)-N-(1-methylpiperidin-4-yl)benzo[d]imidazo[2,1-b]thiazole-7-carboxamide] | +++ (+++ ≥6)
O=C(NC1CCOCC1)c1ccc2c(c1)sc1nc(-c3ccc([C@H]4C[C@@H](O)CN4)cc3F)cn12 (relative stereo) [Compound 533, 2-(2-fluoro-4-((cis)-4-hydroxypyrrolidin-2-yl)phenyl)-N-(tetrahydro-2H-pyran-4-yl)benzo[d]imidazo[2,1-b]thiazole-7-carboxamide] | +++ (+++ ≥6)
O=C(NC1CCOCC1)c1ccc2c(c1)sc1nc(-c3ccc([C@H]4C[C@H](O)CN4)cc3F)cn12 (relative stereo) [Compound 538, 2-(2-fluoro-4-((trans)-4-hydroxypyrrolidin-2-yl)phenyl)-N-(tetrahydro-2H-pyran-4-yl)benzo[d]imidazo[2,1-b]thiazole-7-carboxamide] | +++ (+++ ≥6)
CNC(=O)c1ccc2c(c1)sc1nc(-c3ccc([C@H]4C[C@H](O)CN4)cc3F)cn12 (relative stereo) [Compound 544, 2-(2-fluoro-4-((trans)-4-hydroxypyrrolidin-2-yl)phenyl)-N-methylbenzo[d]imidazo[2,1-b]thiazole-7-carboxamide] | +++ (+++ ≥6)
O=C(N[C@@H]1CCOC1)c1ccc2c(c1)sc1nc(-c3ccc(C4CCCN4)cc3F)cn12 (stereo partly drawn) [524R, 2-(2-fluoro-4-(pyrrolidin-2-yl)phenyl)-N-((R)-tetrahydrofuran-3-yl)benzo[d]imidazo[2,1-b]thiazole-7-carboxamide] | ++ (++ ≥5 and <6)
O=C(N[C@H]1CCOC1)c1ccc2c(c1)sc1nc(-c3ccc(C4CCCN4)cc3F)cn12 (stereo partly drawn) [524S, 2-(2-fluoro-4-(pyrrolidin-2-yl)phenyl)-N-((S)-tetrahydrofuran-3-yl)benzo[d]imidazo[2,1-b]thiazole-7-carboxamide] | ++ (++ ≥5 and <6)
O=C(NCCCN1CCC(F)CC1)c1ccc2c(c1)sc1nc(-c3ccc([C@H]4CCCO4)cc3F)cn12 [Compound 428R, (R)-2-(2-fluoro-4-(tetrahydrofuran-2-yl)phenyl)-N-(3-(4-fluoropiperidin-1-yl)propyl)benzo[d]imidazo[2,1-b]thiazole-7-carboxamide] | ++ (++ ≥5 and <6)
O=C(NCCCN1CCC(F)CC1)c1ccc2c(c1)sc1nc(-c3ccc([C@@H]4CCCO4)cc3F)cn12 [Compound 428S, (S)-2-(2-fluoro-4-(tetrahydrofuran-2-yl)phenyl)-N-(3-(4-fluoropiperidin-1-yl)propyl)benzo[d]imidazo[2,1-b]thiazole-7-carboxamide] | +++ (+++ ≥6)
O=C1CC[C@H](c2ccc(-c3cn4c(n3)sc3cc(C(=O)NCCCN5CCC(F)CC5)ccc34)c(F)c2)N1 [Compound 432R, (R)-2-(2-fluoro-4-(5-oxopyrrolidin-2-yl)phenyl)-N-(3-(4-fluoropiperidin-1-yl)propyl)benzo[d]imidazo[2,1-b]thiazole-7-carboxamide] | +++ (+++ ≥6)
O=C1CC[C@@H](c2ccc(-c3cn4c(n3)sc3cc(C(=O)NCCCN5CCC(F)CC5)ccc34)c(F)c2)N1 [Compound 432S, (S)-2-(2-fluoro-4-(5-oxopyrrolidin-2-yl)phenyl)-N-(3-(4-fluoropiperidin-1-yl)propyl)benzo[d]imidazo[2,1-b]thiazole-7-carboxamide] | +++ (+++ ≥6)
O=C(NCCCN1CCC(F)CC1)c1ccc2c(c1)sc1nc(-c3ccc([C@H]4CCNC4)cc3F)cn12 [Compound 434R, (R)-2-(2-fluoro-4-(pyrrolidin-3-yl)phenyl)-N-(3-(4-fluoropiperidin-1-yl)propyl)benzo[d]imidazo[2,1-b]thiazole-7-carboxamide] | +++ (+++ ≥6)
O=C(NCCCN1CCC(F)CC1)c1ccc2c(c1)sc1nc(-c3ccc([C@@H]4CCNC4)cc3F)cn12 [Compound 434S, (S)-2-(2-fluoro-4-(pyrrolidin-3-yl)phenyl)-N-(3-(4-fluoropiperidin-1-yl)propyl)benzo[d]imidazo[2,1-b]thiazole-7-carboxamide] | +++ (+++ ≥6)
Cc1c(-c2ccc([C@H]3CCCN3)cc2F)nc2sc3cc(C(=O)NCCCN4CCC(F)CC4)ccc3n12 [Compound 464R, (R)-2-(2-fluoro-4-(pyrrolidin-2-yl)phenyl)-N-(3-(4-fluoropiperidin-1-yl)propyl)-3-methylbenzo[d]imidazo[2,1-b]thiazole-7-carboxamide dihydrochloride] | +++ (+++ ≥6)
Cc1c(-c2ccc([C@@H]3CCCN3)cc2F)nc2sc3cc(C(=O)NCCCN4CCC(F)CC4)ccc3n12 [Compound 464S, (S)-2-(2-fluoro-4-(pyrrolidin-2-yl)phenyl)-N-(3-(4-fluoropiperidin-1-yl)propyl)-3-methylbenzo[d]imidazo[2,1-b]thiazole-7-carboxamide dihydrochloride] | +++ (+++ ≥6)
NC1(c2ccc(-c3cn4c(n3)sc3cc(C(=O)NCCCN5CCC(F)CC5)ccc34)c(F)c2)CC1 [Compound 474, 2-(4-(1-aminocyclopropyl)-2-fluorophenyl)-N-(3-(4-fluoropiperidin-1-yl)propyl)benzo[d]imidazo[2,1-b]thiazole-7-carboxamide] | +++ (+++ ≥6)
O=C(NCCCN1CCC(F)CC1)c1ccc2c(c1)sc1nc(-c3ccc(C4CCCN4)c(F)c3F)cn12 (stereo not shown) [Compound 476, 2-(2,3-difluoro-4-(pyrrolidin-2-yl)phenyl)-N-(3-(4-fluoropiperidin-1-yl)propyl)benzo[d]imidazo[2,1-b]thiazole-7-carboxamide] | +++ (+++ ≥6)
O=C(NCCCN1CCC(F)CC1)c1ccc2c(c1)sc1nc(-c3ccc(C4CCNC4)cc3F)cn12 (stereo not shown) [Compound 479, 2-(2-fluoro-4-(pyrrolidin-3-yl)phenyl)-N-(3-(4-fluoropiperidin-1-yl)propyl)benzo[d]imidazo[2,1-b]thiazole-7-carboxamide] | +++ (+++ ≥6)
O=C(NCCCN1CCC(F)CC1)c1ccc2c(c1)sc1nc(-c3ccc(C4CCCCN4)cc3F)cn12 (stereo not shown) [Compound 480, 2-(2-fluoro-4-(piperidin-2-yl)phenyl)-N-(3-(4-fluoropiperidin-1-yl)propyl)benzo[d]imidazo[2,1-b]thiazole-7-carboxamide] | +++ (+++ ≥6)
O=C(NCCCN1CCC(F)CC1)c1ccc2c(c1)sc1nc(-c3ccc(C4COCCN4)cc3F)cn12 (stereo not shown) [Compound 481, 2-(2-fluoro-4-(morpholin-3-yl)phenyl)-N-(3-(4-fluoropiperidin-1-yl)propyl)benzo[d]imidazo[2,1-b]thiazole-7-carboxamide] | +++ (+++ ≥6)
O=C(NCCCN1CCC(F)CC1)c1ccc2c(c1)sc1nc(-c3ccc(-c4nc[nH]n4)cc3F)cn12 [Compound 483, 2-(2-fluoro-4-(1H-1,2,4-triazol-3-yl)phenyl)-N-(3-(4-fluoropiperidin-1-yl)propyl)benzo[d]imidazo[2,1-b]thiazole-7-carboxamide] | +++ (+++ ≥6)
O=C(NCCCN1CCC(F)CC1)c1ccc2c(c1)sc1nc(-c3ccc(C4CCCN4)c(F)c3)cn12 (stereo not shown) [Compound 484, 2-(3-fluoro-4-(pyrrolidin-2-yl)phenyl)-N-(3-(4-fluoropiperidin-1-yl)propyl)benzo[d]imidazo[2,1-b]thiazole-7-carboxamide] | +++ (+++ ≥6)
O=C(NCCCN1CCC(F)CC1)c1ccc2c(c1)sc1nc(-c3ccc(C4CC(F)(F)CN4)cc3F)cn12 (stereo not shown) [Compound 490, 2-(4-(4,4-difluoropyrrolidin-2-yl)-2-fluorophenyl)-N-(3-(4-fluoropiperidin-1-yl)propyl)benzo[d]imidazo[2,1-b]thiazole-7-carboxamide] | +++ (+++ ≥6)
CN1CCC[C@@H](NC(=O)c2ccc3c(c2)sc2nc(-c4ccc(C5CCCN5)cc4F)cn23)C1 (stereo partly drawn) [Compound 491R, 2-(2-fluoro-4-(pyrrolidin-2-yl)phenyl)-N—((R)-1-methylpiperidin-3-yl)benzo[d]imidazo[2,1-b]thiazole-7-carboxamide] | +++ (+++ ≥6)
CN1CCC[C@H](NC(=O)c2ccc3c(c2)sc2nc(-c4ccc(C5CCCN5)cc4F)cn23)C1 (stereo partly drawn) [Compound 491S, 2-(2-fluoro-4-(pyrrolidin-2-yl)phenyl)-N—((S)-1-methylpiperidin-3-yl)benzo[d]imidazo[2,1-b]thiazole-7-carboxamide] | +++ (+++ ≥6)
